Laboratory results: patent US20240379187A1, “SYSTEMS AND METHODS FOR OMICS-BASED ANALYSIS OF GENE EXPRESSION” (priority 2023, published 2024)

Legend:
C. difficile [1] = conditions: cited from earlier work
C. difficile [2] = assay: CAT-GxD re-analysis of public C. difficile gene expression datasets (heatmap, PCA, STRING network, KEGG PTS pathway overlay) after DCA or succinate exposure; format: cell-based, Clostridioides difficile; conditions: for most of the Glc family phosphorylation and L-ascorbate phosphorylation (KEGG PTS pathway): unchanged in Δsig54
From the text: Typically, specific gene expression datasets and protein quantitation datasets for the selected target organism are collected and made available. In an exemplary form, C. difficile-specific gene expression datasets and protein quantitation datasets were collected from GEO database and ProteomeXchange databases, respectively. An SQL database was generated using RSQlite (version 2.3.4) (25) to incorporate the 56 nonredundant GEO transcriptomics datasets and 8 quantitative proteomic datasets. GEO subseries datasets already available in their respective superseries dataset were excluded. Quantitative total proteomic datasets were included; those focused on post-translational modification studies were excluded. To integrate and normalize the datasets, gene IDs were matched to the Ensembl stable IDs of the widely accepted C. difficile 630 reference strain using BLASTp, using protein identity and gene position comparisons and given the NCBI format CD630. Pre-computed log2 ratios without any gene duplication were imported as is. Studies with replicate log2 ratios assigned for a gene ID (common in microarray experiments due to replicate spots) were solved by computing the median log2 ratio. Two-channel microarray experiments with duplicate ratios assigned to a gene were solved by computing the average of the complementary ratios then log2 transformed. Reads Per Kilobase Million (RPKM) of raw RNASeq data were computed. For datasets without any computed ratios, log2 ratios were calculated for each treatment vs. control, and median normalization was performed. Gene classifications (described in Input and Data Filtering) were compiled to provide a comprehensive and robust search.
To glean additional insight into the interactions between the remaining 26 genes, the analysis was transitioned to the STRING database by clicking on the STRING icon at the top left of the page (expression information, however, will not ‘carry over’). […] The least number of nodes with the higher network association scores were selected to bridge the clusters. […] Next, the 5 bridging nodes and rpoN/sigL/sig54 were added to the 26 gene set and re-entered in the CAT-GXD's ‘Search’ bar. […] In order to link the separate networks, the 26 genes were sent to the STRING database by clicking on the STRING icon.
In the pathway tab in CAT-GxD, gene expression data for specific conditions can be overlaid on selected KEGG pathways.

C. difficile [3] = conditions: cited from earlier work; remark: listed apart in the source
[4] = C. difficile exposed to 240 μM DCA for 48 hours
[5] = DCA exposure, compared with succinate exposure
[6] = C. difficile exposed to 80 mM succinate for 24 hours
[7] = C. difficile treated with 80 mM succinate for 24 hours

Row | Structure (SMILES) | biofilm formation in C. difficile (C. difficile [1]) | SigL/Sig54/RpoN expression (C. difficile [2]; [4]) | expression of central bridging node pheA (C. difficile [2]; [4]) | genes of cluster [2] downregulated (C. difficile [2]; [4]) | number of the 27 Δsig54 downregulated genes also downregulated (C. difficile [2]; [4]) | bridging nodes downregulated (C. difficile [2]; C. difficile exposed to 240 μM DCA for 48 hours, bridging nodes ptsH, pheA, pfo, CD3092, CD3640) | expression of cluster [2] bridging node ptsH (C. difficile [2]; DCA exposure (240 μM, 48 hours)) | mannitol (mtlF) phosphorylation (KEGG PTS pathway) (C. difficile [2]; [5]) | sorbitol phosphorylation (KEGG PTS pathway) (C. difficile [2]; [5]) | most of the Glc family phosphorylation and L-ascorbate phosphorylation (KEGG PTS pathway) (C. difficile [2]; DCA ratio (240 μM, 48 hrs)) | mtlF expression in succinate induced biofilms (C. difficile [3]) | biofilm thickness compared with DCA-induced biofilm (C. difficile [1]; succinate versus DCA) | expression of bridging node pfo of clusters [1] and [3] (C. difficile [2]; [6]) | expression of central bridging node pheA (C. difficile [2]; [6]) | expression of cluster [2] bridging node ptsH (C. difficile [2]; [6]) | SigL expression (C. difficile [2]; [7]) | genes (clusters [1] and [3]) displaying contrasting expression patterns relative to Δsig54 (C. difficile [2]; [7]) | genes (of the 10 of cluster [2]) with similar downregulation patterns as with Sig54 loss (C. difficile [2]; [7]) | cellobiose, fructoselysine and sorbitol phosphorylation (KEGG PTS pathway) (C. difficile [2]; succinate exposure, compared with DCA exposure) | most of the Glc family phosphorylation and L-ascorbate phosphorylation (KEGG PTS pathway) (C. difficile [2]; succinate ratio (24 hrs biofilm))
1 | C[C@H](CCC(=O)O)[C@H]1CC[C@H]2[C@@H]3CC[C@@H]4C[C@H](O)CC[C@]4(C)[C@H]3C[C@H](O)[C@]12C [DCA] | induce biofilm formation | downregulated | upregulated | 3 of 10 | 19 of the 27 | 4 of the 5 | downregulated | increased | decreased | downregulated | – | – | – | – | – | – | – | – | – | –
2 | O=C(O)CCC(=O)O [succinate] | induce biofilm formation | – | – | – | – | – | – | – | – | – | downregulation | significantly thicker biofilm | upregulated | upregulated | downregulated | upregulation | 13 of 27 | 7 of the 10 | increased | downregulated
